Experimental data taken from PubChem BioAssay (NCI).
“And” between values parts separate entries of the source, which are not always exact repeats. Equal values may be shown once.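 Cells were grown in 96-well plates and exposed to each compound for 48 hours at five concentrations; endpoints were interpolated linearly between bracketing concentrations, or set to the highest concentration if not reached. Abbreviation: GI50, concentration required for 50% inhibition of growth. TGI: total growth inhibition.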 The source made the active and inactive calls. Cut-off read from the data, not from the text of the source: active = GI50 below about 0.43 µM; inactive = the rest.

Assays:
Assay in all cases: growth of human tumour cells (NCI), 48 h
UACC-257 melanoma = test system: UACC-257 melanoma
K-562 leukemia = test system: K-562 leukemia
M14 melanoma = test system: M14 melanoma
DU-145 prostate = test system: DU-145 prostate
NCI-H226 lung = test system: NCI-H226 lung
M19-MEL melanoma = test system: M19-MEL melanoma
PC-3 prostate = test system: PC-3 prostate
MOLT-4 leukemia = test system: MOLT-4 leukemia
SW-620 colon = test system: SW-620 colon
KM20L2 colon = test system: KM20L2 colon
COLO 205 colon = test system: COLO 205 colon
HCT-15 colon = test system: HCT-15 colon
NCI-H522 lung = test system: NCI-H522 lung
CCRF-CEM leukemia = test system: CCRF-CEM leukemia
SNB-19 CNS = test system: SNB-19 CNS
OVCAR-8 ovarian = test system: OVCAR-8 ovarian
HCC-2998 colon = test system: HCC-2998 colon
OVCAR-5 ovarian = test system: OVCAR-5 ovarian
UO-31 renal = test system: UO-31 renal
A549 NSCLC = test system: A549 NSCLC
SK-MEL-2 melanoma = test system: SK-MEL-2 melanoma
MCF7 breast = test system: MCF7 breast
NCI-H460 lung = test system: NCI-H460 lung
SK-MEL-28 melanoma = test system: SK-MEL-28 melanoma
SF-295 CNS = test system: SF-295 CNS
HCT-116 colon = test system: HCT-116 colon
T-47D breast = test system: T-47D breast
MDA-MB-231 breast = test system: MDA-MB-231 breast
RPMI-8226 leukemia = test system: RPMI-8226 leukemia
RXF 393 renal = test system: RXF 393 renal
HOP-92 NSCLC = test system: HOP-92 NSCLC
786-0 renal = test system: 786-0 renal
ACHN renal = test system: ACHN renal
HT29 colon = test system: HT29 colon
SNB-75 CNS = test system: SNB-75 CNS
OVCAR-3 ovarian = test system: OVCAR-3 ovarian
IGROV1 ovarian = test system: IGROV1 ovarian
DMS 114 small cell lung = test system: DMS 114 small cell lung
SK-OV-3 ovarian = test system: SK-OV-3 ovarian
SK-MEL-5 melanoma = test system: SK-MEL-5 melanoma
MALME-3M melanoma = test system: MALME-3M melanoma
HL-60(TB) leukemia = test system: HL-60(TB) leukemia
MDA-MB-435 = test system: MDA-MB-435
LOX IMVI melanoma = test system: LOX IMVI melanoma
SN12C renal = test system: SN12C renal
HOP-62 NSCLC = test system: HOP-62 NSCLC
EKVX NSCLC = test system: EKVX NSCLC
SR leukemia = test system: SR leukemia
BT-549 breast = test system: BT-549 breast
HOP-18 NSCLC = test system: HOP-18 NSCLC
SF-268 CNS = test system: SF-268 CNS
DMS 273 small cell lung = test system: DMS 273 small cell lung
SNB-78 CNS = test system: SNB-78 CNS
TK-10 renal = test system: TK-10 renal
KM12 colon = test system: KM12 colon
U251 CNS = test system: U251 CNS
NCI-H23 lung = test system: NCI-H23 lung
HS 578T breast = test system: HS 578T breast
CAKI-1 renal = test system: CAKI-1 renal
SF-539 CNS = test system: SF-539 CNS
A498 renal = test system: A498 renal
OVCAR-4 ovarian = test system: OVCAR-4 ovarian
MDA-N = test system: MDA-N
UACC-62 melanoma = test system: UACC-62 melanoma
LXFL 529 NSCLC = test system: LXFL 529 NSCLC

COc1cccc2c1C(=O)c1c(O)c3c(c(O)c1C2=O)C[C@@](O)(C(=O)CO)C[C@@H]3OC1CC(N)C(O)C(C)O1 (some centres not stated)
8.73 µM: TGI (SNB-78 CNS)
15.9 µM: TGI (KM20L2 colon)
550 nM and 696 nM: TGI (A498 renal)
974 nM: TGI (M19-MEL melanoma)
340 nM [middle of 5 runs]: TGI (SK-MEL-5 melanoma)
628 nM [middle of 5 runs]: TGI (MALME-3M melanoma)
1.87 µM [middle of 4 runs]: TGI (MDA-MB-435)
active: GI50 (K-562 leukemia) 218 nM | GI50 (DU-145 prostate) 169 nM [middle of 4 runs] | GI50 (MOLT-4 leukemia) < 22.1 nM | GI50 (NCI-H522 lung) 193 nM | GI50 (A549 NSCLC) 109 nM and 60.9 nM and 106 nM | GI50 (SF-295 CNS) 210 nM | GI50 (RXF 393 renal) 402 nM | GI50 (HOP-92 NSCLC) 306 nM | GI50 (ACHN renal) 105 nM and 81 nM and 176 nM | GI50 (SNB-75 CNS) 245 nM | GI50 (IGROV1 ovarian) 272 nM | GI50 (MALME-3M melanoma) 136 nM | GI50 (LOX IMVI melanoma) 39.2 nM and 91.7 nM | GI50 (HOP-62 NSCLC) 145 nM | GI50 (SF-268 CNS) 219 nM | GI50 (HS 578T breast) < 10 nM | GI50 (SF-539 CNS) 191 nM | GI50 (A498 renal) 81.4 nM and 195 nM | GI50 (UACC-62 melanoma) 149 nM
1110 nM and 1880 nM and 1410 nM: TGI (MDA-N)
1.7 µM [middle of 4 runs]: TGI (SK-MEL-28 melanoma)
2450 nM: TGI (DMS 273 small cell lung)
591 nM: TGI (DMS 114 small cell lung)
13.6 µM: TGI (HOP-18 NSCLC)
1.04 µM [middle of 4 runs]: TGI (RXF 393 renal)
4.83 µM [middle of 4 runs]: TGI (MDA-MB-231 breast)
5.19 µM [middle of 4 runs]: TGI (OVCAR-4 ovarian)
5.37 µM [middle of 4 runs]: TGI (OVCAR-5 ovarian)
inactive: outcome (UACC-257 melanoma) | outcome (K-562 leukemia) | GI50 (M14 melanoma) 432 nM | outcome (M14 melanoma) | outcome (DU-145 prostate) | outcome (NCI-H226 lung) | outcome (PC-3 prostate) | outcome (MOLT-4 leukemia) | outcome (SW-620 colon) | GI50 (COLO 205 colon) 498 nM | outcome (COLO 205 colon) | GI50 (HCT-15 colon) 3.88 µM | outcome (HCT-15 colon) | outcome (NCI-H522 lung) | outcome (CCRF-CEM leukemia) | outcome (SNB-19 CNS) | outcome (OVCAR-8 ovarian) | outcome (HCC-2998 colon) | outcome (OVCAR-5 ovarian) | GI50 (UO-31 renal) 1850 nM | outcome (UO-31 renal) | outcome (A549 NSCLC) | outcome (SK-MEL-2 melanoma) | outcome (MCF7 breast) | outcome (NCI-H460 lung) | GI50 (SK-MEL-28 melanoma) 593 nM | outcome (SK-MEL-28 melanoma) | outcome (SF-295 CNS) | outcome (HCT-116 colon) | outcome (T-47D breast) | GI50 (MDA-MB-231 breast) 949 nM | outcome (MDA-MB-231 breast) | outcome (RPMI-8226 leukemia) | outcome (RXF 393 renal) | outcome (HOP-92 NSCLC) | outcome (786-0 renal) | outcome (ACHN renal) | outcome (HT29 colon) | outcome (SNB-75 CNS) | outcome (OVCAR-3 ovarian) | outcome (IGROV1 ovarian) | outcome (SK-OV-3 ovarian) | outcome (SK-MEL-5 melanoma) | outcome (MALME-3M melanoma) | outcome (HL-60(TB) leukemia) | GI50 (MDA-MB-435) 607 nM | outcome (MDA-MB-435) | outcome (SN12C renal) | outcome (HOP-62 NSCLC) | outcome (EKVX NSCLC) | outcome (SR leukemia) | outcome (BT-549 breast) | outcome (SF-268 CNS) | outcome (TK-10 renal) | outcome (KM12 colon) | outcome (U251 CNS) | outcome (NCI-H23 lung) | outcome (HS 578T breast) | outcome (CAKI-1 renal) | outcome (SF-539 CNS) | outcome (A498 renal) | outcome (OVCAR-4 ovarian) | outcome (MDA-N) | outcome (UACC-62 melanoma)

CCNC(=S)NNC(=O)c1nsc2ccccc12
> 100000 nM: TGI (M19-MEL melanoma) | TGI (DMS 114 small cell lung) | TGI (DMS 273 small cell lung)
> 100 µM: TGI (LXFL 529 NSCLC) | TGI (UACC-257 melanoma) | TGI (K-562 leukemia) | TGI (M14 melanoma) | TGI (MOLT-4 leukemia) | TGI (SW-620 colon) | TGI (KM20L2 colon) | TGI (COLO 205 colon) | TGI (HCT-15 colon) | TGI (CCRF-CEM leukemia) | TGI (SNB-19 CNS) | TGI (OVCAR-8 ovarian) | TGI (HCC-2998 colon) | TGI (OVCAR-5 ovarian) | TGI (UO-31 renal) | TGI (A549 NSCLC) | TGI (SK-MEL-2 melanoma) | TGI (NCI-H460 lung) | TGI (SK-MEL-28 melanoma) | TGI (HCT-116 colon) | TGI (RPMI-8226 leukemia) | TGI (RXF 393 renal) | TGI (HOP-92 NSCLC) | TGI (ACHN renal) | TGI (HT29 colon) | TGI (SNB-75 CNS) | TGI (OVCAR-3 ovarian) | TGI (IGROV1 ovarian) | TGI (SK-MEL-5 melanoma) | TGI (HL-60(TB) leukemia) | TGI (LOX IMVI melanoma) | TGI (SN12C renal) | TGI (HOP-62 NSCLC) | TGI (EKVX NSCLC) | TGI (SR leukemia) | TGI (HOP-18 NSCLC) | TGI (SF-268 CNS) | TGI (SNB-78 CNS) | TGI (TK-10 renal) | TGI (KM12 colon) | TGI (U251 CNS) | TGI (NCI-H23 lung) | TGI (SF-539 CNS) | TGI (OVCAR-4 ovarian) | TGI (UACC-62 melanoma)
